# Marks after values point to notes of the source that are not given here.
# Experiments:
# vitamin D deficient rats = experiment: Bone resorption (serum calcium) induced by 1α,25-dihydroxyvitamin D3 in vitamin D deficient rats; format: in vivo, Wistar rats
# Description: Four-week-old male Wistar rats purchased from Japan SLC (Shizuoka, in Japan) were used. The animals were kept in wire-net cages (three animals in a cage) and raised for 7 weeks with free access to a vitamin D-deficient diet (Ca, 0.0036%; P, 0.3%; Harlan Taklad Research Diet, Madison, Wis., U.S.A.) and drinking water (well water treated with hypochlorite of […]±0.2 ppm). Temperature was kept at 23±1° C. and the humidity at 55±10%. Five animals were used for each experimental group. The control animals received intravenously administered solvent (5% ethanol-0.1% Triton X-100-physiological saline solution), and the experimental animals were intravenously administered 1α,25-dihydroxyvitamin D3 at a dose of 0.25 μg/kg. For animals receiving vitamin D derivatives, compound 11 (23S isomer) was administered intravenously at a dose of 2 μg/kg, 10 μg/kg or 50 μg/kg, or the compound 11 (23S isomer) with or without 1α,25-dihydroxyvitamin D3 at a dose of 0.25 μg/kg. The volume was 2 ml/kg for each animal. 24 hours after administration, a blood sample was taken out from abdominal descending aorta under ether anesthesia, the serum was collected according to conventional methods, and the calcium concentration in the serum was measured. The calcium concentrations were measured according to OCPC-method (Am. J. Clin. Pathol., vol. 45, 290-296 (1966)) with an autoanalyzer (type 7070, manufactured by Hitachi Seisakusho).
# [1] = test system: bone marrow cells of Paget's disease of bone patients; experiment: Osteoclast formation induced by 1α,25-dihydroxyvitamin D3 in bone marrow cultures from Paget's disease of bone patients; format: cell-based, human; settings: for osteoclast formation (average number of cells ± S.D.): Paget's marrow
# Excerpt: (§1) Mononuclear cells were fractionated from bone marrow cells of healthy normal persons according to a method of Kurihara et al. (Endocrinology, vol. 126, 2733-2741 (1990)). Briefly, bone marrow cells were obtained from normal persons, a mononuclear cell fraction was collected by Hypaque-Ficoll density gradient centrifugation, the cell fraction was washed with α-Minimal Essential Media (α-MEM) 3 times, and the cells dispersed in α-MEM containing 10% fetal bovine serum. This mononuclear cell suspension was seeded in 100-mm tissue culture plates, the culture plate was kept for 90 minutes at 37° C. in a 4% CO2-air atmosphere, and the non-adherent cells were collected. The non-adherent mononuclear cells were dispersed into α-MEM culture medium containing 20% horse serum at 10^6 cells/ml, the cell suspension was seeded into 96-well multi plates at 100 μl/well.
# The capacity of the compound 11 (23S isomer) to inhibit osteoclast formation induced by 1α,25-dihydroxyvitamin D3 was evaluated as follows: Various concentrations of 1α,25-dihydroxyvitamin D3, various concentrations of compound 11 ([…]) solution were added to each well. The culture medium was replaced twice weekly and the cultures continued for 3 weeks at 37° C. in an atmosphere of 4% CO2-air. Osteoclasts that formed were identified by their capacity to bind the 23C6 antibody. The nuclei were counter stained with methyl green. Cells that reacted with the 23C6 antibody and had 3 or more nuclei were scored as osteoclasts.
# Bone marrow cells were obtained from involved bones of patients with Paget's disease of bone and processed and cultured as described above for normal bone cells. The cultures were treated in an identical manner with 1α,25-dihydroxyvitamin D3 and/or compound 11 (23S isomer) as described in Example 1.
# Bone marrow cultures were performed as described in Example 1, with the exception that different types of vitamin D antagonists were added to at varying concentrations to bone marrow cultures stimulated with 1α,25-dihydroxyvitamin D3. The bone marrow cells were taken from involved bones of patients with Paget's disease of bone and the cultures were performed as described in Example 2. There are two diastereoisomers, based on the asymmetric carbon at the 23 position, in compounds 13 and 16. The isomer having the shorter retention time on reverse phase HPLC analysis was the more polar isomer and the isomer having the longer retention time was the less polar isomer.
# [2] = test system: bone marrow cells of normal persons; experiment: Osteoclast formation induced by 1α,25-dihydroxyvitamin D3 in normal human bone marrow cultures; format: cell-based; settings: for osteoclast formation (average number of cells ± S.D.): normal marrow
# Excerpt: as §1, with “μl/well. The capacity of the compound 11 (23S isomer) to inhibit osteoclast formation induced by 1α,25-dihydroxyvitamin D3 was evaluated as follows: Various concentrations of 1α,25-dihydroxyvitamin D3, various concentrations of compound 11 (23S isomer) or a combination of 10^−8 M 1α,25-dihydroxyvitamin D3 solution and various concentrations of compound 11 (23S isomer) solution were added to each well. The culture medium was replaced twice weekly and the cultures continued for 3 weeks at 37° C. in an atmosphere of 4% CO2-air. Osteoclasts that formed were identified by their capacity to bind the 23C6 antibody. The nuclei were counter stained with methyl green. Cells that reacted with the 23C6 antibody and had 3 or more nuclei were scored as osteoclasts.” for “μl/well.”
structure (smiles),measurement,setting,value
"C=C1CC(CC(C)C2CCC3C(=CC=C4CC(O)CC(O)C4=C)CCCC32C)OC1=O [compound 11 (23S isomer), (23S)-25-Dehydro-1α,25-Dihydroxyvitamin D3-26, 23-Lactone]",serum Ca concentration,"vitamin D deficient rats; 0.25 μg/kg 1α,25-dihydroxyvitamin D3 + compound 2 μg/kg intravenously, 24 hours",5.31 ± 0.22 mg/100 ml serum
same,serum Ca concentration,"vitamin D deficient rats; 0.25 μg/kg 1α,25-dihydroxyvitamin D3 + compound 10 μg/kg intravenously, 24 hours",4.97 ± 0.18^a mg/100 ml serum
same,serum Ca concentration,"vitamin D deficient rats; 0.25 μg/kg 1α,25-dihydroxyvitamin D3 + compound 50 μg/kg intravenously, 24 hours",4.72 ± 0.21^b mg/100 ml serum
same,"bone resorption induced by 1α,25-dihydroxyvitamin D3 (in words)","vitamin D deficient rats; 0.25 μg/kg 1α,25-dihydroxyvitamin D3 simultaneously with 2, 10 or 50 μg/kg compound",suppressed
same,serum Ca concentration,"vitamin D deficient rats; compound alone, 2 μg/kg intravenously, 24 hours after administration",4.61 ± 0.12 mg/100 ml serum
same,serum Ca concentration,"vitamin D deficient rats; compound alone, 10 μg/kg intravenously, 24 hours after administration",4.67 ± 0.11 mg/100 ml serum
same,serum Ca concentration,"vitamin D deficient rats; compound alone, 50 μg/kg intravenously, 24 hours after administration",4.65 ± 0.18 mg/100 ml serum
same,serum calcium concentration after compound alone (in words),"vitamin D deficient rats; even at a dose of 50 μg/kg, 24 hours after administration",increased serum calcium concentrations were not observed
same,osteoclast formation (average number of cells ± S.D.),"[1]; 10^−10 M 1α,25-dihydroxyvitamin D3 + compound 10^−6 M",1 ± 1 cells
same,osteoclast formation (average number of cells ± S.D.),"[1]; 10^−10 M 1α,25-dihydroxyvitamin D3 + compound 10^−7 M, listed as compound 11 (235 isomer)",14 ± 1 cells
same,osteoclast formation (average number of cells ± S.D.),"[1]; 10^−10 M 1α,25-dihydroxyvitamin D3 + compound 10^−8 M, listed as compound 11 (235 isomer)",63 ± 5 cells
same,osteoclast formation (average number of cells ± S.D.),"[1]; 10^−10 M 1α,25-dihydroxyvitamin D3 + compound 10^−9 M",125 ± 5 cells
same,osteoclast formation (average number of cells ± S.D.),"[1]; 10^−10 M 1α,25-dihydroxyvitamin D3 + compound 10^−10 M",155 ± 6 cells
same,osteoclast formation (average number of cells ± S.D.),"[1]; 10^−10 M 1α,25-dihydroxyvitamin D3 + compound 10^−11 M",170 ± 13 cells
same,induction of osteoclast formation by the compound alone (in words),[1]; Paget's marrow cultures,did not induce osteoclast formation
same,osteoclast formation (average number of cells ± S.D.),"[1]; compound alone, 10^−6 M",1 ± 1 cells
same,osteoclast formation (average number of cells ± S.D.),"[1]; compound alone, 10^−7 M",8 ± 2 cells
same,osteoclast formation (average number of cells ± S.D.),"[1]; compound alone, 10^−8 M",9 ± 3 cells
same,osteoclast formation (average number of cells ± S.D.),"[1]; compound alone, 10^−9 M",16 ± 2 cells
same,osteoclast formation (average number of cells ± S.D.),"[1]; compound alone, 10^−10 M",20 ± 4 cells
same,osteoclast formation (average number of cells ± S.D.),"[1]; compound alone, 10^−11 M",29 ± 5 cells
same,effect on basal osteoclast formation (in words),"[1]; compound alone, Paget's marrow cultures",inhibited basal osteoclast formation
same,osteoclast formation (average number of cells ± S.D.),"[2]; 10^−8 M 1α,25-dihydroxyvitamin D3 + compound 10^−6 M",20 ± 7 cells
same,osteoclast formation (average number of cells ± S.D.),"[2]; 10^−8 M 1α,25-dihydroxyvitamin D3 + compound 10^−7 M",33 ± 16 cells
same,osteoclast formation (average number of cells ± S.D.),"[2]; 10^−8 M 1α,25-dihydroxyvitamin D3 + compound 10^−8 M",44 ± 8 cells
same,osteoclast formation (average number of cells ± S.D.),"[2]; 10^−8 M 1α,25-dihydroxyvitamin D3 + compound 10^−9 M",55 ± 12 cells
same,osteoclast formation (average number of cells ± S.D.),"[2]; 10^−8 M 1α,25-dihydroxyvitamin D3 + compound 10^−10 M",80 ± 5 cells
same,osteoclast formation (average number of cells ± S.D.),"[2]; 10^−8 M 1α,25-dihydroxyvitamin D3 + compound 10^−11 M",85 ± 8 cells
same,osteoclast formation (average number of cells ± S.D.),"[2]; compound alone, 10^−6 M, 3 weeks",0 ± 0 cells
same,osteoclast formation (average number of cells ± S.D.),"[2]; compound alone, 10^−7 M, 3 weeks",0 ± 1 cells
same,osteoclast formation (average number of cells ± S.D.),"[2]; compound alone, 10^−8 M, 3 weeks",3 ± 2 cells
same,osteoclast formation (average number of cells ± S.D.),"[2]; compound alone, 10^−9 M, 3 weeks",5 ± 1 cells
same,osteoclast formation (average number of cells ± S.D.),"[2]; compound alone, 10^−10 M, 3 weeks",9 ± 5 cells
same,osteoclast formation (average number of cells ± S.D.),"[2]; compound alone, 10^−11 M, 3 weeks",17 ± 4 cells
same,induction of osteoclast formation by the compound alone (in words),[2]; normal marrow cultures,did not induce osteoclast formation
